In patent publication US20100113610A1, “METHODS FOR CONTROLLING INFLAMMATORY AND IMMUNOLOGICAL DISEASES” (Purdue Research Foundation, priority 2007, published 2010):

How the values were obtained:
[1] = system: FoxP3; experiment: FoxP3 induction in activated neonatal human cord blood CD4+CD25- naive T cells (RT-PCR, flow cytometry); assay type: cell-based; conditions: for induction of FoxP3+ T cells by single agent: ATRA 2 nM or TGF-β1 2 ng/ml; for optimal concentration for induction of FoxP3: human cord blood CD4+CD25- T cells
Description: All-trans-retinoic acid (ATRA), a major vitamin A metabolite, induces FoxP3 expression in T cells. FoxP3 is the master transcription factor for CD4^+CD25^+ regulatory T cells. […] Neonatal human cord blood CD4^+CD25^− naïve T cells were cultured in a T cell activation condition with IL-2 (25 U/ml) and phytohemagglutinin (PHA, 5 μg/m) in the presence or absence of all-trans retinoic acid (ATRA, 2 nM) for 6 days. Naïve CD4^+CD25^− T cells were activated in the absence and presence of ATRA, and examined for expression of FoxP3 mRNA and protein by RT-PCR analysis (FIG. 1A), flow cytometry analysis (FIG. 1B) and dose-dependent induction of FoxP3 by ATRA (FIG. 1C).
As RARα can be induced in T cells in response to ATRA, the function of this receptor in induction of FoxP3 was examined using an RARα antagonist, Ro41-5253. […] FoxP3 protein expression in CD4 T cells, determined by intracellular staining by PE-labeled anti-FoxP3 antibody, is shown as FACS dot plots (FIG. 3A) and graphs (FIG. 3B). Neonatal human cord blood CD4^+CD25^− T cells were cultured in a T cell activation condition with IL-2 (25 U/ml ) and PHA (5 μg/ml) in the presence and absence of indicated agonists or antagonists for 6 days. The concentrations used to obtain the data were 2 nM (ATRA), 1 μM (Ro41-5253), 5 nM (AM-580), and 10 μM (methoprene acid).
TGF-β is a potent inducer of FoxP3 (Chen et al., 2003, J Exp Med). Therefore, the interaction between ATRA and TGF-β in their effects on FoxP3 expression was examined. […] Neonatal human cord blood CD4^+CD25^− T cells were cultured in a T cell activation condition with IL-2 (100 U/ml) and PHA (5 μg/ml) in the presence and absence of indicated agonists or antagonists for 6 days. Ro41-5253 is a RARα antagonist. […] ATRA was used at 2 nM.

[2] = system: RARα; experiment: RT-PCR of RAR and RXR mRNA expression in CD4+CD25- T cells activated in ATRA; assay type: cell-based, human; conditions: ATRA 2 nM, IL-2 + PHA, 6 days; 6 RAR and RXR receptors
Description: RARα, RARβ and RARγ are the major receptors that are likely to mediate the function of ATRA. The mRNA expression of RARs and RXRs in freshly isolated CD4^+CD25^+ and CD4^+CD25^− T cells was determined, as well as in CD4^+CD25^−T cells activated in ATRA. Neonatal human cord blood CD4^+CD25^− naïve T cells were cultured in a T cell activation condition with IL-2 (25 U/ml) and PHA (5 μg/ml) in the presence or absence of ATRA (2 nM) for 6 days. Freshly isolated CD4^÷CD25^+ and CD4^+CD25^− cells are shown for comparison. RT-PCR was performed, and a representative set of results out of 4 independent experiments are shown.

[3] = system: CD4+CD25- T cells; experiment: 3H-thymidine incorporation assay: proliferation and suppression of CD4+CD25- target T cells in co-culture; assay type: cell-based, human; conditions: treated 6-7 days
Description: ATRA-treated T cells are suppressor cells with unique effector molecules. Generally, regulatory T cells are hypo-proliferative and can suppress the proliferation of target T cells (CD4^+CD25^− T cells) in co-culture. It was therefore determined if the ATRA-induced FoxP3^+ cells had these features. […] Freshly isolated CD4^+CD25^− T cells were cultured with ATRA (2 nM), TGF-p31 (2 ng/ml) or ATRA+TGF-β1 in a T cell activation condition (IL-2 +PHA) for 6-7 days. Then, the T cells were co-cultured with CD4^+CD25^− cells for 5 additional days. A 3H-thymidine incorporation assay was performed to assess the proliferation potentials of the cultures.

[4] = system: granzymes; experiment: Expression of granzyme A, granzyme B and perforin in induced FoxP3+ T cells; assay type: cell-based, human; conditions: for granzyme A expression in induced FoxP3+ cells: FoxP3+ T cells from cord blood CD4+CD25- T cells
Description: Regulatory T cells may use a number of different effector mechanisms to suppress target cells. Granzymes are a class of such effector molecules implicated in regulatory function. […] FoxP3^+ T cells, generated from cord blood CD4^+CD25^− T cells with ATRA, were examined for their expression of granzyme A, granzyme B and perforin. Also included were FoxP3^+T cells, generated with IL-2 (control) or IL-2 (25 U/ml) and TGF-β (2 ng/ml). Expression of granzyme A and B is shown in panel A. Three independent experiments were combined and averages and SEM are shown (panel B).

[5] = system: FoxP3; experiment: FoxP3 induction in mouse DO11.10 (Rag2-/-) CD4+CD25- T cells; assay type: cell-based; conditions: for induction of FoxP3 in mouse T cells: irradiated splenocytes, OVA 323-339 peptide, IL-2 100 U/ml
Description: It was determined if ATRA could induce FoxP3 in mouse T cells. […] These CD4^+ CD25^− T cells were cultured in a T cell activation condition (irradiated splenocytes with […] of OVA 323-339 antigen peptide and 100 U/ml of IL-2) in the presence or absence of ATRA. […] Other retinoids such as AM-580 (a RARα agonist) and methoprene acid (a RXR agonist) were also tested.

[6] = system: FoxP3; experiment: Conversion of mouse naive T cells into mucosal tissue homing FoxP3+ T cells with ATRA and cytokines; assay type: cell-based; conditions: 6-7 days
Description: Also provided is a method with which almost all of naïve T cells can be converted into mucosal tissue homing FoxP3^+ T cells by utilizing ATRA and cytokines. Mouse naïve T cells were cultured with ATRA (1-100 nM), IL-2 (10-1000 U/ml) and TGF-β1 (1-100 ng/ml), together with TCR activators (concanavalin A or PHA at 1-10 μg/ml) for 6-7 days. […] This method reproducibly generates 92-99% pure mucosal tissue homing FoxP3^+ T cells.

[7] = system: FoxP3; experiment: FoxP3 induction in activated neonatal human cord blood CD4+CD25- naive T cells (RT-PCR, flow cytometry); assay type: cell-based; conditions: very high concentration (20 μM), IL-2 + PHA, 6 days
[8] = system: α4β7+ mucosal tissue homing FoxP3+ T cells; experiment: Intestinal FoxP3+ T cell numbers in mice fed food with or without vitamin A; assay type: in vivo, mouse; conditions: 6 weeks
Description: Regulation of mucosal FoxP3^+ cell numbers by vitamin A in vivo and in vitro. The in vivo effect of vitamin A on numbers of intestinal FoxP3^+ T cells was determined. Adult mice were fed with food with (control mice) or without vitamin A for 6 weeks, and then the numbers of FoxP3^+ T cells in small and large intestine, and mesenteric lymph nodes were determined by flow analysis (FIG. 11A).

Molecule: CCCCCCCOc1cc2c(cc1/C(C)=C/c1ccc(C(=O)O)cc1)C(C)(C)CCS2(=O)=O [Ro41-5253]
- suppression of the FoxP3+ cell induction effect of ATRA ([1]; Ro41-5253 1 μM, ATRA 2 nM, 6 days): completely suppressed
- blocking of ATRA-induced versus TGF-β-induced FoxP3 induction ([1]; Ro41-5253, ATRA 2 nM, TGF-β1 2 ng/ml): blocked only ATRA-induced but not TGF-β-induced FoxP3 induction

Molecule: CC1=C(/C=C/C(C)=C/C=C/C(C)=C/C(=O)O)C(C)(C)CCC1 [ATRA, All-trans-retinoic acid]
- effect of ATRA added to the culture with TGF-β on FoxP3+ T cell induction ([1]; ATRA 2 nM + TGF-β1 2 ng/ml, IL-2 100 U/ml + PHA, 6 days): enhanced the effect of TGF-β
- induction of FoxP3+ T cells by single agent ([1]; IL-2 100 U/ml + PHA, 6 days): clear effects
- levels of FoxP3 mRNA expression (RT-PCR) ([1]; ATRA 2 nM with IL-2 25 U/ml and PHA, 6 days, versus IL-2 alone): increased compared to IL-2 alone
- FoxP3+ cells at the protein level (flow cytometry) ([1]; ATRA 2 nM with IL-2 and PHA, 6 days, presence versus absence of ATRA): significantly more
- optimal concentration for induction of FoxP3 ([1]; IL-2 + PHA, 6 days): 2 to 10 nM
- RAR and RXR family receptor mRNA expression in response to ATRA [2]: most highly expressed receptor in response to ATRA was RARα
- suppressive activity of treated T cells on CD4+CD25- T cells ([3]; co-cultured 5 additional days): levels similar to that of TGF-β1-treated cells
- proliferation potential of treated T cells (3H-thymidine incorporation) ([3]; compared to fresh CD4+CD25- cells and cultured control cells): low proliferation potential
- granzyme A expression in induced FoxP3+ cells [4]: expressed granzyme A
- granzyme B or perforin-expressing cells among induced FoxP3+ cells ([4]; versus TGF-β induced FoxP3+ cells): Consistently more
- induction of FoxP3 in mouse T cells [5]: induced FoxP3 expression in T cells
- trafficking receptors of mouse FoxP3+ T cells primed in retinoic acid ([5]; mouse DO11.10 T cells): expressed the mucosal tissue homing receptors CCR9 and α4β7
- T cells after culture that were FoxP3+ regulatory T cells expressing the mucosal tissue homing receptor ([6]; ATRA 1-100 nM, IL-2 10-1000 U/ml, TGF-β1 1-100 ng/ml, TCR activators): ~95%
- purity of mucosal tissue homing FoxP3+ T cells reproducibly generated ([6]; ATRA, IL-2, TGF-β1 and TCR activators): 92-99%

Molecule: COC(C)(C)CCCC(C)C/C=C/C(C)=C/C(=O)O (centres unmarked) [methoprene acid]
- induction of FoxP3 in mouse T cells [5]: able to induce FOXP3 only at very high concentrations
- optimal dose for induction of FOXP3 in mouse T cells ([5]; mouse DO11.10 T cells): ~100 µM
- induction of FoxP3 by pan-RXR agonist [7]: only marginal effects

Molecule: CC1(C)CCC(C)(C)c2cc(C(=O)Nc3ccc(C(=O)O)cc3)ccc21 [AM-580]
- induction of FoxP3 by RARα-specific agonist ([1]; AM-580 5 nM, IL-2 + PHA, 6 days): able to induce FoxP3
- optimal concentration for induction of FoxP3 ([1]; IL-2 + PHA, 6 days): 5 nM
- induction of FoxP3 in mouse T cells [5]: good inducer of FoxP3 at low concentrations

Molecule: vitamin A
- numbers of α4β7+ mucosal tissue homing FoxP3+ T cells in the large and small intestines ([8]; vitamin A-deficient food versus control food with vitamin A): significantly smaller numbers
- numbers of FoxP3+ T cells in lymph nodes (MLN) ([8]; vitamin A-deficient food versus control food): no reduction

Molecule: TGF-β: a potent inducer of FoxP3 (cytokine)
- induction of FoxP3+ T cells by single agent ([1]; IL-2 100 U/ml + PHA, 6 days): clear effects
- granzyme A expression in induced FoxP3+ cells [4]: did not express granzyme A at significant levels
